Assay type in all cases: in vivo
One series relates to male Wister rats. Description: Submerged restraint stress ulcer test. The note with it: Rattus norvegicus, oral, once, 30 mg/5 ml/kg body weight in 0.5% CMC, 1 h before 6 h water immersion restraint stress, read-out: Ulceration inhibitory ratio (%). The procedure: A test compound as shown in Table 1 was suspended in 0.5% carboxymethylcellulose (CMC) and orally administered once to male Wister rats aged 11 weeks, which had been fasted for 18 hours, at a dose of 30 mg/5 ml/kg body weight. Similarly, 5 ml of 0.5% CMC was administered to a control group. One hour after the administration of the test compound, the rats were kept in restraining gages and immersed in water at 20 to 22°C up to the chest. Then, these animals were allowed to stand as such for six hours so as to load a stress. After pulling up from the water, each animal was sacrificed by vertebral cervical dislocation and the stomach was taken out. 5 ml of a 5% aqueous solution of formaldehyde was injected into the stomach and the stomach was immersed in said solution for 30 minutes for fixation. The specimen thus fixed was cut along the curvatura ventriculi major and the major axis of the formed ulcer was measured with a slide calipers (mm). The sum of the major axes of the total ulcers was made an ulcer index.
The ulceration inhibitory ratio was calculated according to the following equation: [formula]

For series [1], the system named is male Donryu rats. The experiment in a line: Histamine-induced ulcer test. The note with it: oral, once, 30 mg/5 ml/kg, 1 h before histamine dihydrochloride 200 mg/5 ml/kg i.p., sacrificed after five hours. The procedure: A compound obtained in Example 2 was suspended in 0.5% CMC and orally administered once to male Donryu rats, which had been fasted for 24 hours, at a dose of 30 mg/5 ml/kg. Similarly, 5 ml of 0.5% CMC was administered to a control group. One hour after the administration of the test compound, a solution of histamine dihydrochloride in a physiological saline solution was intraperitoneally administered to the rats at a dose of 200 mg/5 ml/kg. After five hours, each animal was sacrificed and the stomach was taken out and treated with an aqueous solution of formaldehyde to determine the ulceration inhibitory ratio in the same manner as in the above-described submerged restrain stress ulcer test. As a result, the ulceration inhibitory ratio was 50%.

The subject of series [2] is male Donryu rats. The experiment in a line: Aspirin-induced ulcer test. The conditions noted are these: oral, 30 mg/5 ml/kg body weight, 1 h before Aspirin 300 mg/5 ml/kg oral, sacrificed after four hours. The procedure:
A test compound suspended in 0.5% carboxymethylcellulose orally administered to male Donryu rats, which had been fasted for 24 hours, at a dose of 30 mg/5 ml/kg body weight. Similarly, 5 ml of 0.5% CMC was administered to a control group. One hour after the administration of the test compound, Aspirin suspended in 0.5% CMC was orally administered to the rats at a dose of 300 mg/5 ml/kg body weight. After four hours, each animal was sacrificed and the stomach was taken out and treated with an aqueous solution of formaldehyde to determine the ulceration inhibitory ratio in the same manner as in the submerged restrain stress ulcer test.

Series [3] has as its system male Donryu rats. The experiment in a line: Ethanol-induced ulcer test. The conditions noted are these: oral, 50 mg/5 ml/kg body weight, 1 h before 100% ethanol 5 ml/kg oral, sacrificed after one hour. The protocol: A compound obtained in Example 2 was suspended in 0.5% CMC and orally administered to male Donryu rats, which had been fasted for 48 hours and abstained from water for 24 hours, at a dose of […]. Similarly, 5 ml of 0.5% CMC was administered to a control group. One hour after the administration of the test compound, 100% ethanol was orally administered to the rats at a dose of 5 ml/kg body weight. After one hour, each animal was sacrificed and the stomach was taken out and treated in the above-mentioned manner. Then, erosion formation in the stomach was observed.
As a result, in a control group to which 0.5% CMC was given alone, erosion was formed at a frequency of almost 100%. In contrast thereto, in a test group to which the test compound was administered at a dose of 50 mg/5 ml/kg body weight, erosion formation was inhibited at a frequency of almost 100%. 5. Acute toxicity

The subject of another series is male ICR mice. Description: Acute toxicity. The conditions noted are these: oral, once, 1,000 mg/10 ml/kg body weight in 0.5% CMC; three male ICR mice; observed for seven days. An excerpt:
A compound prepared in Example 2 was suspended in 0.5% CMC to give a predetermined concentration. Then, three male ICR mice aged 5 weeks were forced to orally take the above suspension once.

Marks after values point to notes of the source that are not given here.

Turning to `CCOCC[S+]([O-])c1nc2cc(Cl)ccc2s1` (stereo not shown) [Example 2, 5-Chloro-2-[(2-ethoxyethyl)sulfinyl]benzothiazole], in the series with male Wister rats, the inhibition in vivo at 30 mg/kg amounted to 93%. The ulceration inhibitory ratio in the series with male Donryu rats [1] amounted to 50%. The “Ulceration inhibitory ratio (%)” value with male Donryu rats [2] was 85* %. Moreover, the “erosion formation was inhibited at a frequency of” value with male Donryu rats [3] was ~100%. Also, in the series with male ICR mice, the “acute toxicity (death of animals)” value was “no animal died”.

For the molecule `CCOCC[S+]([O-])c1nc2ccccc2[nH]1` (stereo not shown) [Example 17, 2-[(2-Ethoxyethyl)sulfinyl]benzimidazole], the inhibition in vivo at 30 mg/kg in the series with male Wister rats came out at 73.6%.

`[O-][S+](CCOCCOCCO)c1nc2cc(Cl)ccc2s1` (stereo not shown) [Example 11, 5-Chloro-2-[{2-(2-hydroxyethoxy)ethoxy}ethylsulfinyl]benzothiazole]: the inhibition in vivo at 30 mg/kg in the series with male Wister rats was 63.5%.

For `CCOCC[S+]([O-])c1nc2ccccc2s1` (stereo not shown) [Example 4, 2-[(2-Ethoxyethyl)sulfinyl]benzothiazole], the inhibition in vivo at 30 mg/kg with male Wister rats came to 59.9%.

Consider `[O-][S+](CCO)c1nc2cc(Cl)ccc2s1` (stereo not shown) [Example 9, 5-Chloro-2-[(2-hydroxyethyl)sulfinyl]benzothiazole], for which the inhibition in vivo at 30 mg/kg in the series with male Wister rats was found to be 58.5%.

Regarding `COc1ccc2[nH]c([S+]([O-])Cc3ncc(C)c(OC)c3C)nc2c1` (stereo not shown) [omeprazole, reference compound], in the series with male Wister rats, the inhibition in vivo at 30 mg/kg was found to be 99%.

In the case of `CCOCCSc1nc2cc(Cl)ccc2s1` [Example 1, 5-Chloro-2-[(2-ethoxyethyl)thio]benzothiazole], the inhibition in vivo at 30 mg/kg in the series with male Wister rats amounted to 57%. Further, the “Ulceration inhibitory ratio (%)” value in the series with male Donryu rats [2] is listed as 21.3%.

In the case of `CCOCCS(=O)(=O)c1nc2cc(Cl)ccc2s1` [Example 3, 5-Chloro-2-[(2-ethoxyethyl)sulfonyl]benzothiazole], the inhibition in vivo at 30 mg/kg in the series with male Wister rats worked out at 35.3%.

For the origin of these results see patent publication EP0370436A2, “Novel benzothiazole and benzimidazole derivatives and antiulcer agent containing the same” (MEIJI SEIKA KAISHA LTD., priority 1988, dated 1990).
